Measurements from patent US20240251785A1, “SMALL MOLECULE ANTAGONISTS AND AGONISTS OF ARTHROPOD KININ RECEPTORS FOR PEST CONTROL” (The Texas A&M University System, priority 2021, published 2024).
Read-outs that look alike come from different tables or passages of the source.

How the values were obtained:
[1] = system: R. microplus kinin receptor; assay: High-throughput dual-addition calcium fluorescence screen on BMLK3 cells; format: cell-based, Rhipicephalus microplus; conditions: for antagonist Io (%): compound 2 μmol L^−1, 5 min, then FFFSWGa 500 nmol L^−1; for agonist NPA (%): compound 2 μmol L^−1, first addition, relative to FFFSWGa 500 nmol L^−1
[2] = biological target: recombinant tick kinin receptor (BMLK3) (Rhipicephalus microplus, UniProt Q9NHA4); assay: Dose-response dual-addition calcium fluorescence assay on BMLK3 cells; format: cell-based; conditions: for validation mark in dose-response assay: Table 3; for EC50: read-out: BMLK3 EC50
Chain of recombinant tick kinin receptor (BMLK3) (Q9NHA4 entry or part of it): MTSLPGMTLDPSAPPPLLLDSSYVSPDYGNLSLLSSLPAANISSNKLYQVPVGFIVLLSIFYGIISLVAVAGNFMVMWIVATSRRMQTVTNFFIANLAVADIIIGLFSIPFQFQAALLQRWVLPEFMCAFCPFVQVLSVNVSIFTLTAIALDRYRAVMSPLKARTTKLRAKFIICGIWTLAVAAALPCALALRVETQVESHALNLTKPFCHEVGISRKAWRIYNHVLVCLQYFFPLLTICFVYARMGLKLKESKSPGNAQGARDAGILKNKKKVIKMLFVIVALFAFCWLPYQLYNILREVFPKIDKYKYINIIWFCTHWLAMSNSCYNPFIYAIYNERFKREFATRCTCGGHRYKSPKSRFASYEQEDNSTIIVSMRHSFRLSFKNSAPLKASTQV

[3] = system: vector-only (V/O) CHO-K1 cells; assay: Dose-response dual-addition calcium fluorescence assay on vector-only cells; format: cell-based; conditions: for IC50: read-out: V/O antagonist IC50
[4] = first addition, 20 concentrations 28 nM-25 μM
[5] = second addition Rhimi-K-1 1 μmol L^−1, read-out: BMLK3 IC50
[6] = V/O cells, second addition Rhimi-K-1 1 μmol L^−1
[7] = virtual hit molecules, dual-addition assay, recombinant tick kinin receptor (BMLK3) cells
[8] = virtual hit molecules, dual-addition assay, recombinant tick kinin receptor (BMLK3) cells, read-out: BMLK3 antagonist IC50
[9] = virtual hit molecules, dual-addition assay, vector-only cell (V/O)

| EC50 [2, 4] [µM] | IC50 [2, 5] [µM] | EC50 [2, 7] [µM] | IC50 [2, 8] [µM] | SMILES | antagonist Io (%) [1] [%] | validation mark in dose-response assay [2] | EC50 ([3]; V/O cells, first addition) [µM] | IC50 [3, 6] [µM] | agonist NPA (%) [1] [%] | EC50 [3, 9] [µM] | IC50 [3, 9] [µM] |
| --- | --- | --- | --- | --- | --- | --- | --- | --- | --- | --- | --- |
| < 0.0285 | 0.225 | – | – | Cc1oc(S(=O)(=O)N2CCOCC2)cc1C(=O)Nc1ccc(F)cc1 [SACC-0026188] | 67 | *** (molecules which are either off-target or of low activity (<25 μM)) | 0.154 | > 25 | – | – | – |
| 6.95 | < 0.0285 | – | – | Cc1cc(C(C)(C)C)cc(C)c1CSC(=N)N [SACC-0029825] | – | *** (molecules which are either off-target or of low activity (<25 μM)) | 5.46 | 9.81 | 70 | – | – |
| 1.48 | < 0.0285 | – | – | COC(=O)c1cc2c(s1)Oc1cc(C(F)(F)F)ccc1C(=S)N2 [SACC-0081272] | 74 | *** (molecules which are either off-target or of low activity (<25 μM)) | 0.0485 | > 25 | – | – | – |
| 0.743 | 4.15 | – | – | Cc1cc(N=CN(C)C)c2ccccc2n1 [SACC-0068485] | 56 | *** (molecules which are either off-target or of low activity (<25 μM)) | 3.77 | 0.549 | – | – | – |
| 0.662 | 4.6 | – | – | CC1=C(Cc2ccccc2)C(C)Nc2ccccc2N1 (stereo not shown) [SACC-0026915] | – | *** (molecules which are either off-target or of low activity (<25 μM)) | 1 | > 25 | 111 | – | – |
| 0.281 | > 25 | – | – | CCCC1=CC(=C2NNC(C)=C2c2ccc(C(=O)OCC)o2)C(O)=CC1=O [SACC-0048694] | 65 | *** (molecules which are either off-target or of low activity (<25 μM)) | 6.87 | 17.5 | – | – | – |
| < 0.0285 | > 25 | – | – | O=C(O)COc1ccccn1 [SACC-0126930] | – | *** (molecules which are either off-target or of low activity (<25 μM)) | 0.761 | < 0.0285 | 133 | – | – |
| – | – | > 25 | 8.47 | COc1cc2c(cc1OC)CN(c1ncnc3scc(-c4ccc(Cl)cc4)c13)CC2 [SACC-0095849] | – | – | – | – | – | 0.393 | 0.914 |
| 4.37 | 0.0845 | – | – | CN1c2ccccc2Oc2nnc(Cl)cc21 [SACC-0075838] | – | *** (molecules which are either off-target or of low activity (<25 μM)) | > 25 | > 25 | 143 | – | – |
| 9.01 | 0.252 | – | – | CC1(C)CSC(=NCc2ccccc2)N1C(=O)Cc1noc2ccccc12 [SACC-0024181] | – | *** (molecules which are either off-target or of low activity (<25 μM)) | 8.1 | 6.27 | 48 | – | – |
| 12 | 10.9 | – | – | O=C(CCc1nc(-c2cccs2)no1)Nc1ccc(-n2cnc3ccccc32)nc1 [SACC-0114394] | – | *** (molecules which are either off-target or of low activity (<25 μM)) | 4.19 | 4.32 | 152 | – | – |
| 5.78 | 4.43 | – | – | C=C(NNC(=S)Nc1c(C)cccc1C)c1cc2ccccc2o1 [SACC-0037245] | 63 | *** (molecules which are either off-target or of low activity (<25 μM)) | < 0.0285 | 0.605 | – | – | – |
| 1.74 | < 0.0285 | – | – | O=C(NC(=S)NNC(=O)c1cc(-c2ccccc2)nc2ccccc12)c1cccs1 [SACC-0117741] | – | *** (molecules which are either off-target or of low activity (<25 μM)) | 1.89 | 1.49 | 127 | – | – |
| > 25 | 0.765 | – | – | Cc1cc2ncn(CCCCSc3ccccc3)c2cc1C [SACC-0025692] | 42 | *** (molecules which are either off-target or of low activity (<25 μM)) | 9.54 | 0.112 | – | – | – |
| – | – | 17.3 | < 0.0285 | Clc1ccc(-c2csc3ncnc(N4CCN(c5ccccn5)CC4)c23)cc1 [SACC-0064924] | – | – | – | – | – | 11.9 | > 25 |
| – | – | 0.124 | 13.2 | O=C(c1ccco1)N1CCN(c2cccc3scc(-c4cccs4)c23)CC1 [SACC-0117388] | – | – | – | – | – | 1.78 | 8.39 |
| – | – | > 25 | < 0.0285 | N#CC(=C(O)c1ccc(-c2ccc(Cl)cc2Cl)o1)c1nc2ccccc2c(=O)[nH]1 [SACC-0112961] | – | – | – | – | – | 0.243 | > 25 |
| – | – | > 25 | 6.54 | c1ccc(-c2csc3ncnc(N4CCCC4c4cccnc4)c23)cc1 (stereo not shown) [SACC-0011206] | – | – | – | – | – | 17.5 | 0.985 |

| EC50 [2, 4] [µM] | IC50 [2, 5] [µM] | EC50 [2, 7] [µM] | IC50 [2, 8] [µM] | SMILES | antagonist Io (%) [1] [%] | validation mark in dose-response assay [2] | EC50 ([3]; V/O cells, first addition) [µM] | IC50 [3, 6] [µM] | agonist NPA (%) [1] [%] | EC50 [3, 9] [µM] | IC50 [3, 9] [µM] |
| --- | --- | --- | --- | --- | --- | --- | --- | --- | --- | --- | --- |
| 0.299 | > 25 | – | – | O=C(Cn1cnc2ccccc21)NCc1ccc(OCc2ccccc2)cc1 [SACC-0115325] | 83 | *** (molecules which are either off-target or of low activity (<25 μM)) | > 25 | > 25 | – | – | – |
| > 25 | > 25 | – | – | COc1ccccc1-n1nnnc1S[C@@H](C)C(=O)c1ccc2c(c1)CCN2C(C)=O [SACC-0095062] | – | *** (molecules which are either off-target or of low activity (<25 μM)) | > 25 | < 0.0285 | 47 | – | – |
| 0.898 | 10.3 | – | – | CCNc1nc(NCc2ccco2)c2ccccc2n1 [SACC-0055093] | – | *** (molecules which are either off-target or of low activity (<25 μM)) | 0.683 | 0.376 | 128 | – | – |
| 0.504 | 0.21 | – | – | O=C(CSC1=NCCS1)c1ccc(Cl)cc1 [SACC-0064624] | 76 | *** (molecules which are either off-target or of low activity (<25 μM)) | > 25 | > 25 | – | – | – |
| 4.17 | > 25 | – | – | CCCc1cc(-c2cc(O)n3nc(C)c(CC)c3n2)no1 [SACC-0048722] | 56 | *** (molecules which are either off-target or of low activity (<25 μM)) | < 0.0285 | 4.32 | – | – | – |
| – | – | > 25 | 1.88 | CC1=CC(=NNC(=S)NCc2ccccc2)CC1 [SACC-0029249] | – | – | – | – | – | > 25 | < 0.0285 |
| – | – | < 0.0285 | 8.06 | Cc1nc(-c2ccc(CNc3ncnc4sccc34)o2)cs1 [SACC-0039825] | – | – | – | – | – | > 25 | 0.334 |
| 13.2 | 3.09 | – | – | Cc1nc(C)c(C(=O)N(Cc2ccco2)C2CCN(c3ccc4c(c3)OCO4)CC2)s1 [SACC-0040154] | – | *** (molecules which are either off-target or of low activity (<25 μM)) | 0.12 | 1.24 | 81 | – | – |
| – | – | 0.0417 | > 25 | c1ccc(-c2csc3ncnc(Nc4ccc5c(c4)OCCO5)c23)cc1 [SACC-0011565] | – | – | – | – | – | > 25 | 1.22 |
| > 25 | > 25 | – | – | CCN(CC)c1ccc2cc(C(N)=O)c(=NNC(=O)c3cccs3)oc2c1 [SACC-0052578] | – | *** (molecules which are either off-target or of low activity (<25 μM)) | > 25 | > 25 | 166 | – | – |
| – | – | > 25 | 0.106 | Cc1ccc(S(=O)(=O)Nc2nc(CN3CCCC3)nc3sc(C)c(C)c23)cc1 [SACC-0025777] | – | – | – | – | – | 1.57 | > 25 |
| – | – | 1.11 | < 0.0285 | COc1ccc(C=Nn2c(C(F)(F)F)n[nH]c2=S)cc1 [SACC-0087120] | – | – | – | – | – | 3.16 | > 25 |
| – | – | 16.6 | 1.41 | S=C(NCc1ccccc1)NN=C1CCC(c2ccccc2)CC1 (stereo not shown) [SACC-0131532] | – | – | – | – | – | > 25 | > 25 |
| – | – | > 25 | 9.82 | C=CCNC(=S)NNC1=CC[C@@H](c2ccccc2)CC1 [SACC-0010978] | – | – | – | – | – | 0.0677 | 12.2 |
| – | – | > 25 | 8.31 | CCC(CO)Nc1nc(CN2CCCCC2)nc2scc(-c3ccccc3)c12 (stereo not shown) [SACC-0046099] | – | – | – | – | – | 3.58 | 2.45 |
| – | – | 0.326 | 0.501 | CN1/C(=C/C=C/c2ccc3ccccc3[n+]2C)C=Cc2ccccc21 [SACC-0072383] | – | – | – | – | – | 0.294 | > 25 |
| – | – | > 25 | > 25 | CCc1cc2c(NCc3ccco3)nc(C)nc2s1 [SACC-0047526] | – | – | – | – | – | > 25 | > 25 |
| – | – | 1.08 | 0.0832 | O=[N+]([O-])c1ccc2nc(Nc3ccc(Br)cc3)c(Nc3ccc(Br)cc3)nc2c1 [SACC-0005102] | – | – | – | – | – | 0.485 | 0.177 |

| SMILES | EC50 [2, 4] [µM] | IC50 [2, 5] [µM] | EC50 [2, 7] [µM] | IC50 [2, 8] [µM] | antagonist Io (%) [1] [%] | validation mark in dose-response assay [2] | EC50 ([3]; V/O cells, first addition) [µM] | IC50 [3, 6] [µM] | agonist NPA (%) [1] [%] | EC50 [3, 9] [µM] | IC50 [3, 9] [µM] |
| --- | --- | --- | --- | --- | --- | --- | --- | --- | --- | --- | --- |
| O=C(Nc1ccc(I)cc1)C(Cl)(Cl)Cl [SACC-0062945] | < 0.0285 | 0.128 | – | – | – | *** (molecules which are either off-target or of low activity (<25 μM)) | 0.0604 | 3.84 | 61 | – | – |
